Values quoted from earlier work, collected in patent publication EP4772635A1, “RNAI AGENT TARGETING APP AND PHARMACEUTICAL USE THEREOF” (Tuojie Biotech (Shanghai) Co., Ltd., priority 2023, dated 2025).

Conditions: octanol-water partition coefficient, illustrative values in the definitions

logKow	SMILES
about 0.7	NCCCCCCO [6-aminohexanol]
10.7	CC(C)CCC[C@@H](C)[C@H]1CC[C@H]2[C@@H]3CC=C4C[C@@H](OC(=O)NCCCCCCO)CC[C@]4(C)[C@H]3CC[C@]12C [cholesteryl N-(hexan-6-ol)carbamate]
